The record followed here is US11564928B1, “Cannabinoid receptor type 2 (CB2) modulators and uses thereof” (Teon Therapeutics, Inc., priority 2020, dated 2023).

Read-outs that look alike come from different tables or passages of the source.

One assay addresses human recombinant CB1R (Homo sapiens (Human), UniProt P21554). As to the kind of experiment: CB1 receptor binding assay ([3H]CP-55,940 displacement, HEK-293 membranes). The settings on record: membranes of HEK-293 cells with human recombinant CB1R, [3H]CP-55,940, read-out: CB1 IC50. The essentials: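 Displacement of [3H]CP-55,940 was measured on human CB1R- or CB2R-transfected HEK-293 membranes after 120 min at 37 °C, in duplicate, with filtration and scintillation counting. For CB2R, incubation used Tris-HCl 50 mM, MgCl2 5 mM, CaCl2 1 mM, BSA 0.2%, pH 7.4. Ki values were derived from variable-slope IC50 fits using Cheng–Prusoff.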

For assay [1], the target named is T1, human CB2 receptor (Homo sapiens (Human), UniProt P34972). As to the kind of experiment: CB2 receptor cAMP assay (DiscoverX HitHunter cAMP XS+). In kind it is cell-based. The settings on record: for Emax: CHO-K1, read-out: Max Stimulation %. How it is done: cAMP Hunter CHO-K-1 cell lines expressing human CB2 receptor (Eurofins) were expanded from freezer stocks according to standard procedures. Cells were seeded in a total volume of 20 μL into white walled, 384-well microplates and incubated at 37° C. for the appropriate time prior to testing. cAMP modulation in agonist, inverse agonist or antagonist format was determined using the DiscoverX HitHunter cAMP XS+ assay (Eurofins). For agonist determination, cells were incubated with sample in the presence of EC80 forskolin to induce response. Media was aspirated from cells and replaced with 15 μL 2:1 HBSS/10 mM Hepes: cAMP XS+Ab reagent. Intermediate dilution of sample stocks was performed to generate 4× sample in assay buffer containing 4× EC80 forskolin. 5 μL of 4× sample was added to cells and incubated at 37° C. or room temperature for 30 or 60 minutes. Final assay vehicle concentration was 1%. For inverse agonist determination, cells were preincubated with sample in the presence of EC20 forskolin. Media was aspirated from cells and replaced with 15 μL, 2:1 HBSS/10 mM Hepes: cAMP XS+Ab reagent. Intermediate dilution of sample stocks was performed to generate 4× sample in assay buffer containing 4× EC20 forskolin. 5 μL of 4× sample was added to cells and incubated at 37° C. or room temperature for 30 or 60 minutes. Final assay vehicle concentration was 1%. For antagonist determination, cells were pre-incubated with sample followed by agonist challenge at the EC80 concentration. Media was aspirated from cells and replaced with 10 μL 1:1 HBSS/Hepes: cAMP XS+Ab reagent. 5 μL of 4× compound was added to the cells and incubated at 37° C. or room temperature for 30 minutes. 5 μL of 4× EC80 agonist was added to cells and incubated at 37° C. or room temperature for 30 or 60 minutes. EC80 forksolin was included. After appropriate compound incubation, assay signal was generated through incubation with 20 μL cAMP XS+ED/CL lysis cocktail for one hour followed by incubation with 20 μL, cAMP XS+EA reagent for three hours at room temperature. Microplates were read following signal generation with a PerkinElmer Envision instrument for chemiluminescent signal detection. Compound activity was analyzed using CBIS data analysis suite (ChemInnovation, CA). For agonist mode assay, percentage activity is calculated using the following formula: % Activity=100%×(1−(mean RLU of test sample−mean RLU of MAX control)/(mean RLU of vehicle control−mean RLU of MAX control)). For inverse agonist mode assay, percentage activity is calculated using the following formula: % Inverse Agonist Activity=100%×((mean RLU of test sample−mean RLU of EC20 forskolin)/(mean RLU of forskolin positive control−mean RLU of EC20 control)). For antagonist mode assay, percentage inhibition is calculated using the following formula: % Inhibition=100%×(mean RLU of test sample−mean RLU of EC80 control)/(mean RLU of forskolin positive control−mean RLU of EC80 control). Data are analyzed and IC50 is calculated using GraphPad Prism 5 and the model “log(inhibitor) vs. response—Variable slope”.
On the technique in general: cAMP levels reflect the balance of adenylyl cyclase and phosphodiesterase activity.

Assay [2] has as its target T1, human CB2 receptor. As to the kind of experiment: CB2 receptor binding assay ([3H]CP-55,940 displacement, HEK-293 membranes). The settings on record: membranes of HEK-293 cells with human recombinant CB2R, [3H]CP-55,940, read-out: CB2 IC50.
The mark [3] stands for this setting: cAMP Hunter CHO-K-1 cells expressing human CB2 receptor, read-out: cAMP IC50.

T1 sequence (P34972 whole entry): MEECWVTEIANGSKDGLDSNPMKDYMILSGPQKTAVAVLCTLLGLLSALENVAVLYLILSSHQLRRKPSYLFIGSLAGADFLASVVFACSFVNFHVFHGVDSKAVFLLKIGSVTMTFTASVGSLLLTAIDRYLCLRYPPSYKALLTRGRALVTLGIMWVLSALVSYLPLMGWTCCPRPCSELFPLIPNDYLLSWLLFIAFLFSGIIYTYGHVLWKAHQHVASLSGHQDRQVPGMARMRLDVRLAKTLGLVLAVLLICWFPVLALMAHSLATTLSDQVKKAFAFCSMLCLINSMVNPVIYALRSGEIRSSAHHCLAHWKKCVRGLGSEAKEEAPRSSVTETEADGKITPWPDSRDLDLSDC
Chain of human recombinant CB1R (P21554 whole entry): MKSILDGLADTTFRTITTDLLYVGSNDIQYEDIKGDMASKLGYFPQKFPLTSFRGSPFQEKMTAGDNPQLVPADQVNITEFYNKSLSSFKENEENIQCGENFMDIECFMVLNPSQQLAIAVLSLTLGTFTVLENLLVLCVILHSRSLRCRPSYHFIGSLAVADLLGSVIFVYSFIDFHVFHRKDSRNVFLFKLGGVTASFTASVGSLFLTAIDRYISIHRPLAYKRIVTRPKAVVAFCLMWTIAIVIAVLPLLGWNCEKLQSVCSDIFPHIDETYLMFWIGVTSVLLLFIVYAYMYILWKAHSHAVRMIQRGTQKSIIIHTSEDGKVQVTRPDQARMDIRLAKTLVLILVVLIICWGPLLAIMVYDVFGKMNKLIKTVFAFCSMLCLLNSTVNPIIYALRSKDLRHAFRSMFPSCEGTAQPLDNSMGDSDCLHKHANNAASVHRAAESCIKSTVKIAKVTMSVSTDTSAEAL

Take `COc1ccc(-c2cnc3c(c2)c(O)c(C(=O)NC2CCC(C)CC2)c(=O)n3CCN2CCOCC2)cc1` (stereo not drawn) [Compound 20, 4-hydroxy-6-(4-methoxyphenyl)-N-(4-methylcyclohexyl)-1-(2-morpholinoethyl)-2-oxo-1,2-dihydro-1,8-naphthyridine-3-carboxamide]: the values for the IC50 on human recombinant CB1R, on human CB2 receptor [1] and at human CB2 receptor [2] were > 10000 nM, 7 nM and 4.7 nM, respectively. On human CB2 receptor [1], the Emax amounted to 93%.
Turning to `CC1CCC(NC(=O)c2cc3cc(-c4ncccn4)cnc3n(CCN3CCOCC3)c2=O)CC1` (stereo not drawn) [Compound 63, N-(4-methylcyclohexyl)-1-(2-morpholinoethyl)-2-oxo-6-(pyrimidin-2-yl)-1,2-dihydro-1,8-naphthyridine-3-carboxamide], the values for the IC50 on human recombinant CB1R (class symbols), on human CB2 receptor [1] (setting [3]) and on human CB2 receptor [2] (class symbols) were > 1000 nM, > 1000 nM and < 100 nM, respectively.
`O=C(NC12CC(C1)C2)c1cc2cc(C3CC3)cnc2n(Cc2ccc(F)cc2)c1=O` [Compound 83, N-(bicyclo[1.1.1]pentan-1-yl)-6-cyclopropyl-1-(4-fluorobenzyl)-2-oxo-1,2-dihydro-1,8-naphthyridine-3-carboxamide]: the IC50 at human recombinant CB1R (class symbols) is > 1000 nM; against human CB2 receptor [1] it was 5 nM; on human CB2 receptor [2] (class symbols) it was < 100 nM. Further, the Emax at human CB2 receptor [1] was 93%.
Regarding `COc1ccc(-c2cnc3c(c2)cc(C(=O)NC(C)c2ccc(F)cc2)c(=O)n3CCN2CCOCC2)cc1` (stereo not drawn) [Compound 30, N-(1-(4-fluorophenyl)ethyl)-6-(4-methoxyphenyl)-1-(2-morpholinoethyl)-2-oxo-1,2-dihydro-1,8-naphthyridine-3-carboxamide], the IC50 on human recombinant CB1R is > 10000 nM; against human CB2 receptor [1], 17 nM; on human CB2 receptor [2] it was 1.2 nM. Besides, the Emax at human CB2 receptor [1] is 89%.
Taken in the same sequence, the figures for `CC(C)c1cnc2c(c1)cc(C(=O)N[C@H](C)c1ccc(C#N)cc1)c(=O)n2Cc1ccc(F)cc1` [Compound 85, (R)—N-(1-(4-cyanophenyl)ethyl)-1-(4-fluorobenzyl)-6-isopropyl-2-oxo-1,2-dihydro-1,8-naphthyridine-3-carboxamide] were 605 nM, 0.5 nM, 7.9 nM and 93%.
Regarding `CC(C)c1cnc2c(c1)cc(C(=O)N[C@H](C)c1ccc(F)cc1)c(=O)n2Cc1ccc(F)cc1` [Compound 89, (R)-1-(4-fluorobenzyl)-N-(1-(4-fluorophenyl)ethyl)-6-isopropyl-2-oxo-1,2-dihydro-1,8-naphthyridine-3-carboxamide], the figures for the IC50 on human recombinant CB1R (class symbols), against human CB2 receptor [1] and at human CB2 receptor [2] (class symbols) were > 1000 nM, 7 nM and < 100 nM, respectively. Besides, the Emax on human CB2 receptor [1] was 92%.
Consider `C[C@@H](NC(=O)c1cc2cc(C3COC3)cnc2n(Cc2ccc(F)cc2)c1=O)c1ccc(F)cc1` [Compound 103, (R)-1-(4-fluorobenzyl)-N-(1-(4-fluorophenyl)ethyl)-6-(oxetan-3-yl)-2-oxo-1,2-dihydro-1,8-naphthyridine-3-carboxamide], for which the figures for the IC50 on human recombinant CB1R, against human CB2 receptor [1] and on human CB2 receptor [2] were 2900 nM, 9 nM and 3 nM, respectively. Further, on human CB2 receptor [1], the Emax is 91%.
On to `N#Cc1ccc(-c2cnc3c(c2)cc(C(=O)NC2CC4(CCC4)C2)c(=O)n3CCN2CCOCC2)cc1` [Compound 44, 6-(4-cyanophenyl)-1-(2-morpholinoethyl)-2-oxo-N-(spiro[3.3]heptan-2-yl)-1,2-dihydro-1,8-naphthyridine-3-carboxamide], for which the IC50 on human recombinant CB1R was 6080 nM; at human CB2 receptor [1] (setting [3]), > 1000 nM; on human CB2 receptor [2], 7.2 nM.
As to `N#Cc1ccc(-c2cnc3c(c2)cc(C(=O)NC24CC(C2)C4)c(=O)n3CCN2CCOCC2)cc1` [Compound 46, N-(bicyclo[1.1.1]pentan-1-yl)-6-(4-cyanophenyl)-1-(2-morpholinoethyl)-2-oxo-1,2-dihydro-1,8-naphthyridine-3-carboxamide], the values for the IC50 on human recombinant CB1R, against human CB2 receptor [1] and on human CB2 receptor [2] were 8610 nM, 14 nM and 6 nM, respectively. In addition, at human CB2 receptor [1], the Emax worked out at 77%.
For the molecule `CC1CCC(NC(=O)c2cc3cc(-c4ccccn4)cnc3n(CCN3CCOCC3)c2=O)CC1` (stereo not drawn) [Compound 62, N-(4-methylcyclohexyl)-1-(2-morpholinoethyl)-2-oxo-6-(pyridin-2-yl)-1,2-dihydro-1,8-naphthyridine-3-carboxamide], the results for the IC50 on human recombinant CB1R (class symbols), against human CB2 receptor [1] and on human CB2 receptor [2] (class symbols) were > 1000 nM, 13 nM and < 100 nM, respectively. Besides, the Emax at human CB2 receptor [1] came to 33%.
Consider `O=C(NC1CCC(F)(F)CC1)c1c(O)c2cc(-c3ccc(F)cc3)cnc2n(CCN2CCOCC2)c1=O` [Compound 7, N-(4,4-difluorocyclohexyl)-6-(4-fluorophenyl)-4-hydroxy-1-(2-morpholinoethyl)-2-oxo-1,2-dihydro-1,8-naphthyridine-3-carboxamide], for which the IC50 on human recombinant CB1R (class symbols), at human CB2 receptor [1] (setting [3]) and on human CB2 receptor [2] (class symbols) was > 1000 nM throughout.
As for `COc1ccc(-c2cnc3c(c2)cc(C(=O)NC2CC4(COC4)C2)c(=O)n3CCN2CCOCC2)cc1` [Compound 31, 6-(4-methoxyphenyl)-1-(2-morpholinoethyl)-2-oxo-N-(2-oxaspiro[3.3]heptan-6-yl)-1,2-dihydro-1,8-naphthyridine-3-carboxamide], the IC50 at human recombinant CB1R (class symbols) was > 1000 nM; on human CB2 receptor [1] (setting [3]), 127 nM; on human CB2 receptor [2] (class symbols), < 100 nM. The Emax on human CB2 receptor [1] worked out at 78%.
Take `O=C(NC12CC(C1)C2)c1c(O)c2cc(-c3ccc(F)cc3)cnc2n(CCN2CCOCC2)c1=O` [Compound 8, N-(bicyclo[1.1.1]pentan-1-yl)-6-(4-fluorophenyl)-4-hydroxy-1-(2-morpholinoethyl)-2-oxo-1,2-dihydro-1,8-naphthyridine-3-carboxamide]: the figures for the IC50 at human recombinant CB1R, at human CB2 receptor [1] and at human CB2 receptor [2] were > 10000 nM, 40 nM and 20 nM, respectively. Moreover, the Emax on human CB2 receptor [1] came to 32%.
For the molecule `COc1ccc(-c2cnc3c(c2)cc(C(=O)NCc2ccc(F)cc2)c(=O)n3CCN2CCOCC2)cc1` [Compound 105, N-(4-fluorobenzyl)-6-(4-methoxyphenyl)-1-(2-morpholinoethyl)-2-oxo-1,2-dihydro-1,8-naphthyridine-3-carboxamide], the results for the IC50 at human recombinant CB1R, against human CB2 receptor [1] and at human CB2 receptor [2] were > 10000 nM, 28 nM and 14 nM, respectively. The Emax on human CB2 receptor [1] turned out to be 116%.
As for `O=C(NC1CC2(CCC2)C1)c1cc2cc(-c3ccc4c(c3)OCCO4)cnc2n(CCN2CCOCC2)c1=O` [Compound 33, 6-(2,3-dihydrobenzo[b][1,4]dioxin-6-yl)-1-(2-morpholinoethyl)-2-oxo-N-(spiro[3.3]heptan-2-yl)-1,2-dihydro-1,8-naphthyridine-3-carboxamide], the IC50 at human recombinant CB1R was > 10000 nM; on human CB2 receptor [1], 6 nM; at human CB2 receptor [2] it was 4 nM.
Take `C[C@@H](NC(=O)c1cc2cc(C3CC3)cnc2n(Cc2ccc(F)cc2)c1=O)c1ccc(F)cc1` [Compound 94, (R)-6-cyclopropyl-1-(4-fluorobenzyl)-N-(1-(4-fluorophenyl)ethyl)-2-oxo-1,2-dihydro-1,8-naphthyridine-3-carboxamide]: the IC50 came out at 3260 nM at human recombinant CB1R, 0.8 nM on human CB2 receptor [1] and 4.1 nM on human CB2 receptor [2]. Further, at human CB2 receptor [1], the Emax is 55%.

What is called IC50 is the midpoint of a concentration-inhibition curve.
